Laboratory results: patent US20260335323A1, “CHIMERIC MOLECULE” (UCL Business Ltd, priority 2023, published 2026)

Key:
LC3 [1] = assay: ATP5a/LC3 co-localisation immunofluorescence in MEF WT; format: cell-based, mouse
Description: (§1) FIG. 6. ULKTACs rely on ULK1 for the redirection of autophagy components to mitochondria and subsequent mitophagic degradation (A) Western blot of mouse embryonic fibroblasts (MEF) WT and MEF ULK1/2^−/− treated with 1 mM ULKTACs, 5 mM CCCP or both and probed for ULK1, Mfn2 and Actin—quantification of the relative intensity of Mfn2 shown in (B), normalised to Actin. Representative immunofluorescence of MEF WT (C) and MEF ULK1/2^−/− (D) treated with 5 mM CCCP, 1 mM ULKTACs or both and immunostained for Alexa 488 ATP5a and Alexa 647 LC3B. Quantification of the colocalised LC3 to ATP5a spot area shown in WT vs ULK1/2^−/− treated MEF cells shown in (E). Data shown are mean±SEM, n=3, *p<0.05, ** p<0.01, *** p<0.001, Two-way ANOVA with Tukey's multiple comparisons test.
(§2) For TOM20/ULK1 immunofluorescence, cells were seeded in a 384 well PerkinElmer CellCarrier Ultra plate 24 hours prior to treatment with compounds. Cells were treated for 18 hours after which they were fixed with 4% paraformaldehyde (PFA) in phosphate buffered saline (PBS) and blocked with 10% FBS and 0.1% Triton in PBS. Plates were incubated at 4° C. overnight, with 1:400 mouse anti-TOM20 (Santa Cruz, #sc-17764) and 1:400 rabbit anti-ULK1 (Cell Signalling Technologies, #0854). […]

LC3 [2] = assay: ATP5a/LC3 co-localisation immunofluorescence in MEF ULK1/2-/-; format: cell-based, mouse; conditions: ULK1/2-/- cells
Description: as §1, §2

c-MYC = c-MYC immunofluorescence in hTERT-cMYC-ER expressing RPE1 cells; format: cell-based, human; conditions: 100 nM, 72 hours, with 4-OHT
Description: FIG. 9. (A) Schematic representation of hTERT-cMYC-ER expressing RPE1 cells. Treatment with 4-hydroxytamoxifen (4-OHT) translocates c-MYC-ER from the cytoplasm into the nucleus, simulating oncogenic c-MYC. (B) Immunofluorescence images of hTERT-cMYC-ER expressing RPE1 cells treated with DMSO, (+)-JQ1 or NZ-147 at 100 nM for 72 hours, each with or without 4-OHT.
RPE1-hTERT-c-MYC-ER cells were seeded in a 384 well PerkinElmer CellCarrier Ultra plate. In Example 8, cells were treated for 72 hours with DMSO, (+)-JQ1±4-OHT, or, NZ-147±4-OHT. In Example 9, cells were treated for 72 hours with 4-OHT, NZ-175, both, or neither. Thereafter, in both Examples 8 and 9, cells were fixed with 4% paraformaldehyde (PFA) in phosphate buffered saline (PBS) and blocked with 10% FBS and 0.1% Triton in PBS. Plates were incubated at 4° C. overnight, with 1:500 rabbit anti-c-MYC (D84C12) rabbit monoclonal antibody (#5605, Cell Signalling Technologies). The following day, plates were incubated with 1:1000 goat anti-rabbit Alexa 488 (ThermoFisher Scientific, #A-11008) and 1.62 μM Hoechst 33342 at room temperature for 1 hour before imaging. Excitation and emission spectra for each channel are as follows: Hoechst 33342=405/435-480 nm, Alexa 488=488/500-550 nm. Images were acquired at 40× and 63× magnification with water immersion lens.

H1299 cells [3] = assay: Colony formation assay, H1299; format: cell-based, human
Description: A549 and H1299 cells were seeded in 12 well plates at approximately 100 cells per well. In Example 8, wells were treated with DMSO, (+)-JQ1 or NZ-147. In Example 9, cells were treated with DMSO or NZ-175. Colonies were allowed to form over 120 h. Cells were fixed and stained with crystal violet staining solution, prepared in 70% ethanol.
A colony formation assay was performed in A549 and H1299 cells, which were treated with DMSO, (+)-JQ1 or NZ-147 at 100 nM for 72 hours and stained with crystal violet (FIG. 10A).
A colony formation assay was performed in A549 and H1299 cells, which were treated with DMSO or NZ-175 at 100 nM for 72 hours and stained with crystal violet (FIG. 16A).

H1299 cells [4] = assay: Cell viability assay (CellTiter Glo), H1299; format: cell-based, human; conditions: H1299, increasing concentrations
Description: A549 and H1299 cells were seeded in OptiPlate-384 well plates and treated with increasing concentrations of (+)-JQ1 or NZ-147 from 0 μM to 10 µM in Example 8 and with increasing concentrations of NZ-175 from 0 µM to 10 µM in Example 9. Cells were treated for 120 h before using the luciferase based CellTiter Glo assay (Promega) to measure cell viability.
Cell viability assay was performed in A549 and H1299 cells, which were treated with different concentrations of (+)-JQ1 or NZ-147 at 100 nM for 72 hours (FIG. 10B).
Cell viability assay was performed in A549 and H1299 cells, which were treated with different concentrations of NZ-147 at 100 nM for 72 hours (FIG. 16B).

Row | SMILES | co-localisation of ATP5a with LC3 (LC3 [1]) | co-localisation of ATP5a with LC3 (LC3 [2]) | nuclear c-MYC (c-MYC) | colony formation (H1299 cells [3]; H1299, 100 nM, 72 hours) | cell proliferation (H1299 cells [3]; c-MYC-amplified cell line H1299) | percentage of live cells (H1299 cells [4])
1 | O=C(Nc1cc(C(F)(F)F)cc(C(F)(F)F)c1)N[C@@H](C(=O)Nc1ccc(F)cc1F)c1ccc(OCc2cn(CCOCCOCCNC(=O)C(=O)c3c(-c4ccccc4)[nH]c4ccccc34)nn2)cc1 [NZ-65, (R)-2-(3-(3,5-bis(trifluoromethyl)phenyl)ureido)-N-(2,4-difluorophenyl)-2-(4-((1-(2-(2-(2-(2-oxo-2-(2-phenyl-1H-indol-3-yl)acetamido)ethoxy)ethoxy)ethyl)-1H-1,2,3-triazol-4-yl)methoxy)phenyl) acetamide] | increase in co-localisation | absent | – | – | – | –
2 | O=C(Nc1cc(C(F)(F)F)cc(C(F)(F)F)c1)N[C@@H](C(=O)Nc1ccc(F)cc1F)c1ccc(OCc2cn(CCCCCCNC(=O)C(=O)c3c(-c4ccccc4)[nH]c4ccccc34)nn2)cc1 [NZ-66, (R)-2-(3-(3,5-bis(trifluoromethyl)phenyl)ureido)-N-(2,4-difluorophenyl)-2-(4-((1-(6-(2-oxo-2-(2-phenyl-1H-indol-3-yl)acetamido)hexyl)-1H-1,2,3-triazol-4-yl)methoxy)phenyl) acetamide] | increase in co-localisation | absent | – | – | – | –
3 | Cc1sc2c(c1C)C(c1ccc(Cl)cc1)=N[C@@H](CC(=O)NCCOCCOCCOCCn1cc(COc3ccc([C@@H](NC(=O)Nc4cc(C(F)(F)F)cc(C(F)(F)F)c4)C(=O)Nc4ccc(F)cc4F)cc3)nn1)c1nnc(C)n1-2 [NZ-147, (R)-2-(3-(3,5-bis(trifluoromethyl)phenyl)ureido)-2-(4-((1-(1-((S)-4-(4-chlorophenyl)-2,3,9-trimethyl-6H-thieno[3,2-f][1,2,4]triazolo[4,3-a][1,4]diazepin-6-yl)-2-oxo-6,9, 12-trioxa-3-azatetradecan-14-yl)-1H-1,2,3-triazol-4-yl)methoxy)phenyl)-N-(2,4-difluorophenyl) acetamide] | – | – | may show reduced nuclear c-MYC | Fewest colonies formed | reduced cell proliferation, exemplified further in the c-MYC-amplified cell line H1299 | dose-dependent decrease in the percentage of live cells
